Literature values, collected in PubChem BioAssay AID1259409 (Chemical Carcinogenesis Research Information System (CCRIS), 2018).

System: rodent chemically induced tumor inhibition, incidence and multiplicity
Test: CCRIS tumor inhibitor studies
Conditions: Dose [Inhibitor]: 0, Species: RAT

## NCCS
Carcinogen: 7,12-DIMETHYLBENZ[A]ANTHRACENE, 57-97-6, 0.015 MOL/KG DIET BEGINNING 2 WK PRIOR TO CARCINOGEN AND CONTINUED FOR STUDY DURATION (STUDY DURATION: 25 WK), Route [Inhibitor]: ORAL, Strain/Sex: CD-1/FEMALE, Target Tissue: Type of Lesion: MAMMARY GLAND: ADENOCARCINOMA, Dose [Carcinogen]: 10 MG ONCE, Promoter: NONE USED
  tumour outcome (control, treated, inhibition, significance): 18/25 (72%), 17/25 (68%), 5%, not significant
Carcinogen: 7,12-DIMETHYLBENZ[A]ANTHRACENE, 57-97-6, 0.03 MOL/KG DIET BEGINNING 2 WK PRIOR TO CARCINOGEN AND CONTINUED FOR STUDY DURATION (STUDY DURATION: 25 WK), Route [Inhibitor]: ORAL, Strain/Sex: CD-1/FEMALE, Target Tissue: Type of Lesion: MAMMARY GLAND: ADENOCARCINOMA, Dose [Carcinogen]: 10 MG ONCE, Promoter: NONE USED
  tumour outcome (control, treated, inhibition, significance): 18/25 (72%), 12/25 (48%), 33%, not significant
Carcinogen: 7,12-DIMETHYLBENZ[A]ANTHRACENE, 57-97-6, 0.06 MOL/KG DIET BEGINNING 2 WK PRIOR TO CARCINOGEN AND CONTINUED FOR STUDY DURATION (STUDY DURATION: 25 WK), Route [Inhibitor]: ORAL, Strain/Sex: CD-1/FEMALE, Target Tissue: Type of Lesion: MAMMARY GLAND: ADENOCARCINOMA, Dose [Carcinogen]: 10 MG ONCE, Promoter: NONE USED
  tumour outcome (control, treated, inhibition, significance): 18/25 (72%), 13/25 (52%), 28%, not significant
Carcinogen: AZOXYMETHANE, 25843-45-2, 25 MG/KG IN 0.9% SODIUM CHLORIDE 1/2 D FOR 40 WK ADMINISTERED CONCURRENTLY WITH CARCINOGEN (STUDY DURATION: 40 WK), Route [Inhibitor]: SUBCUTANEOUS, Strain/Sex: WISTAR, Target Tissue: Type of Lesion: COLON: TUMOR, Dose [Carcinogen]: 7.4 MG/KG IN 0.9% SODIUM CHLORIDE SOLUTION 1/WK FOR 10 WK, Promoter: NONE USED
  tumour outcome (control, treated, inhibition, significance): 17/18 (94%), 7/17 (41%), 56%, p<0.01
Carcinogen: N-METHYL-N'-NITRO-N-NITROSOGUANIDINE, 70-25-7, 5 MG/KG 1/2 D ADMINISTERED SIMULTANEOUSLY WITH 30 MG/KG SULPIRIDE BEGINNING 1 WK POST CARCINOGEN TREATMENT AND CONTIN, Route [Inhibitor]: SUBCUTANEOUS, Strain/Sex: WISTAR/MALE, Target Tissue: Type of Lesion: STOMACH: ADENOCARCINOMA, Dose [Carcinogen]: 50 UG/ML IN DRINKING WATER FOR 25 WK, Promoter: NONE USED
  tumour outcome (control, treated, inhibition, significance): 13/18 (72%), 5/20 (25%), 65%, not calculated
Carcinogen: N-METHYL-N'-NITRO-N-NITROSOGUANIDINE, 70-25-7, 5 MG/KG 1/2 D BEGINNING 1 WK POST CARCINOGEN TREATMENT AND CONTINUING FOR DURATION OF STUDY (STUDY DURATION: 52 WK), Route [Inhibitor]: SUBCUTANEOUS, Strain/Sex: WISTAR/MALE, Target Tissue: Type of Lesion: STOMACH: ADENOCARCINOMA, Dose [Carcinogen]: 50 UG/ML IN DRINKING WATER FOR 25 WK, Promoter: NONE USED
  tumour outcome (control, treated, inhibition, significance): 13/18 (72%), 13/20 (65%), 10%, not significant
Carcinogen: N-METHYL-N'-NITRO-N-NITROSOGUANIDINE, 70-25-7, 5 MG/KG IN 1 ML/KG OLIVE OIL 1/2 D FOR STUDY DURATION BEGINNING POST CARCINOGEN TREATMENT (STUDY DURATION: 52 WK), Route [Inhibitor]: SUBCUTANEOUS, Strain/Sex: WISTAR/MALE, Target Tissue: Type of Lesion: GLANDULAR STOMACH: ADENOCARCINOMA, Dose [Carcinogen]: 50 UG/ML DRINKING WATER FOR 25 WK
  tumour outcome (control, treated, inhibition, significance): 13/18 (72%), 13/20 (65%), 10%, not significant
Carcinogen: N-METHYL-N'-NITRO-N-NITROSOGUANIDINE, 70-25-7, 25 MG/KG 1/2 D ADMINISTERED SIMULTANEOUSLY WITH 30 MG/KG SULPIRIDE BEGINNING 1 WK POST CARCINOGEN TREATMENT AND CONTI, Route [Inhibitor]: SUBCUTANEOUS, Strain/Sex: WISTAR/MALE, Target Tissue: Type of Lesion: STOMACH: ADENOCARCINOMA, Dose [Carcinogen]: 50 UG/ML IN DRINKING WATER FOR 25 WK, Promoter: NONE USED
  tumour outcome (control, treated, inhibition, significance): 13/18 (72%), 6/20 (30%), 58%, not calculated
Carcinogen: N-METHYL-N'-NITRO-N-NITROSOGUANIDINE, 70-25-7, 25 MG/KG 1/2 D BEGINNING 1 WK POST CARCINOGEN TREATMENT AND CONTINUING FOR DURATION OF STUDY (STUDY DURATION: 52 WK), Route [Inhibitor]: SUBCUTANEOUS, Strain/Sex: WISTAR/MALE, Target Tissue: Type of Lesion: STOMACH: ADENOCARCINOMA, Dose [Carcinogen]: 50 UG/ML IN DRINKING WATER FOR 25 WK, Promoter: NONE USED
  tumour outcome (control, treated, inhibition, significance): 13/18 (72%), 6/20 (30%), 58%, p<0.05
Carcinogen: N-METHYL-N'-NITRO-N-NITROSOGUANIDINE, 70-25-7, 25 MG/KG IN 0.9% SALINE 1/2 D BEGINNING 1 WK POST LAST CARCINOGEN DOSE AND CONTINUING FOR DURATION OF STUDY (STUDY DU, Route [Inhibitor]: SUBCUTANEOUS, Strain/Sex: WISTAR/MALE, Target Tissue: Type of Lesion: STOMACH: ADENOCARCINOMA, Dose [Carcinogen]: 100 UG/ML IN DRINKING WATER FOR 25 WK, Promoter: NONE USED
  tumour outcome (control, treated, inhibition, significance): 16/20 (80%), 10/22 (45%), 44%, p<0.05
